The values below come from US20140107015A1, “PHARAMACEUTICAL COMPOSITION FOR PREVENTING OR TREATING HUMAN IMMUNODEFICIENCY VIRUS” (priority 2012, published 2014).

Series [1] relates to C8166 cell lines infected with HIV-1IIIB. To be noted: 0.5 mg/ml; for cell viability of HIV-1-infected C8166 cells: 48 hours after HIV-1IIIB infection, MTT, untreated cells = 100%; for cell protecting effect from HIV-1 lysis activity (cell deaths): FIG. 17 and 20.
Protocol: And then, the cytotoxicities were measured through MTT assay as time passed.
Since C8166 cell lines were sensitive about lysis effect of HIV-1 replication, the present test evaluated a degree of inhibiting HIV-1 replication based on the sensitivity of C8166 cells at lysis activity due to HIV-1 infection in the present experiment.
Since then, the supernatants of HIV-1IIIB were diluted in complete medium to yield sufficient cytopathicity, and a 100 μl aliquot was added to the wells. Plates were incubated for 24 h, 48 h and 72 h at 37° C. and after each respective incubation, 100 μl of 500 μg/ml MTT solution was added to each well and the plate was incubated for another 4 hours at 37° C. The formazan salt was dissolved in acidified propanol containing 50% DMSO and 4% triton X-100. […] The optical density of formazan formed by untreated cells was taken as 100% of viability.
The subject of series [2] is C8166 cells infected with HIV-1RF. Put plainly: Syncytia formation inhibition in C8166 infected with HIV-1RF, various concentrations, 96 hours. To be noted: for syncytia formation inhibition over concentrations: 0.2, 0.4, 0.6, 0.8, and 1.0 mg/ml, 96 hours, FIGS. 28, 29. Format: cell-based. As for the experimental part: Specifically, 1×10^5C8166 cells in aliquots of 300 μl were seeded in triplicate to a 48-well plate containing 100 μl of serial dilutions of COS-N in complete RPMI-1640 medium with 5% FBS. After 2 hours of incubation, the cells were infected with 100 μl of stock supernatant of HIV-1RF diluted in complete medium at 200 CCID50 (μg/ml). The plates were incubated at 37° C. for 96 hours and the formation of syncytia was determined microscopically by using an inverted microscope (Leica Microsystems, Germany). Dextran sulfate having the syncytia formation inhibiting effect was used as a positive control group.
The syncytia formation effect was measured by using the same method as in Example <4-3>.

Series [3] concerns TZM-b1 cell infected with HIV-1IIIB. Particulars: for HIV-1 replication (gene reporter): 0.05, 0.1, 0.5, and 1 mg/ml, 48 hours, FIG. 38; for HIV-1 replication inhibition relative to the other samples: among COS-D, COS-T, COS-Y, COS-TD, COS-TY.
Protocol: Briefly, one day before infection, 5×10^4 TZM-d1 cells were seeded in a 24-well flat, and added with 100 μl of HIV-1IIIB supernatant (100 CCID50 (1 μg/ml)) to infect 50% of the cells. […] After incubation, cells were washed with cold PBS and lysed in 300 μl of lysis buffer (Promega Corp., Madison, Wis.). 20 μl of cell lysate was mixed with 100 μl of luciferase substrate (Promega) and light emission was measured for 10 seconds in a luminometer (Tecan Austria GmbH, Austria). In case of β-galactosidase assay, 100 μl of X-gal substrate was mixed with cell lysate in order to stain the HIV-1 replicated cells and light absorption was measured at the optical density of 550 nm.
Series [4] deals with C8166 cell lines infected with HIV-1RF. The series is described as follows: Syncytia formation in C8166 cells infected with HIV-1RF (microscopy, 48 hours). Format: cell-based. Particulars: 0.5 mg/ml; for number of syncytia formation per well versus untreated control: FIG. 22; for syncytia formation observed with a microscope: FIGS. 18, 19, 21.
Protocol: Since then, a degree of syncytia formation was observed by using a microscope.
When the virus infection stimulating cell fusion was analyzed, the syncytia formation was tested in order to investigate the virus infection.
Specifically, 1×10^5 C8166 cells in aliquots of 300 μl were seeded in triplicate to a 48-well plate containing 100 μl of serial dilutions of COS-amino acids (each of chitosan oligomer-amino acid conjugate) in complete RPMI-1640 medium with 5% FBS. After 2 hours of incubation, the cells were infected with 100 μl of stock supernatant of HIV-1RF diluted in complete medium at 200 CCID50 (μg/ml). The plates were incubated at 37° C. for 48 hours and the formation of syncytia was determined microscopically by using an inverted microscope (Leica Microsystems, Germany).
After 2 hours of incubation, the cells were infected with 100 μl of stock supernatant of HIV-1RF diluted in complete medium at 200 CCID50 (μg/ml). The plates were incubated at 37° C. for 48 hours and the formation of syncytia was determined microscopically by using an inverted microscope.
Series [5] deals with HIV-1 reverse transcriptase (UniProt P04585). To be noted: for reverse transcriptase (RT) activity inhibition: 0.5 mg/ml, FIG. 23.
In series [6] the target is T1, HIV-1 reverse transcriptase (Human immunodeficiency virus type 1 group M subtype B, UniProt P05959).
T1 construct: endogenous in cells; host or cells: C8166 and CEM-SS cells infected with HIV-1RF (lysates)
The class given is biochemical. To be noted: for reverse transcriptase inhibiting activity over concentrations: 0.05, 0.1, 0.25, 0.5, and 1 mg/ml, FIGS. 26, 27.

Series [7] has as its system H9 cells infected with HIV-1IIIB. The series is described as follows: Western blot analysis of p24 protein amount in cells. Format: cell-based. Particulars: 0.01 to 1 mg/ml; cultured for 4 days; FIG. 34. A general note: A western blot detects proteins with antibodies after separation by electrophoresis.
Protocol: The total cultured cells were lysised in RIPA buffer solution (Sigma-Aldrich Corp., St. Louis, USA), centrifuged, and then the total protein amount of cell lysate was measured by using Lowry method (BioRad Laboratories, Hercules, Calif.). The aliquot supernatant including the same volume of protein (15 μg) was subjected to 10% or 12% SDS-PAGE gel, transferred on a nitrocellulose membrane (Amersham Pharmacia Biotech., England, UK), and blocked in Tris buffered saline containing 0.1% (v/v) Tween-20 (TBS-T) and 5% skim milk powder for at least 1 hour. The membrane was hybridized with mouse anti-p24 monoclonal antibody (Santa Cruz Biotechnology Inc., CA, USA). All the primary monoclonal antibodies were diluted with TBS-T at a ratio of 1:1000. The antibody was detected with Horseradish peroxidase (HRP)-conjugated anti-mouse IgG secondary antibody for 1 hour. The immune reactive protein was detected by using a chemical fluorescence ECL detecting kit (Amersham Pharmacia Biosciences, England, UK) according to the manufacturer's instruction. The western blot bands were visualized by LAS3000® chemiluminescence (Fujifilm Life Science, Tokyo, Japan).
Series [8] relates to CEM-SS cells infected with HIV-1IIIB and HIV-1Saq. To be noted: 0.5 mg/ml; FIG. 37.
Protocol: Uninfected CEM-SS cells were cultured into individual wells of a 48-well microtiter plate at a density of 3×10^4 cells/well in 400 μl of medium. Diluted HIV-1IIIB and HIV-1Saq stock supernatants (100 μl) were added to appropriate wells to yield a final M.O.I of 1.0 (CCID50). […] After a total of 4 days incubation, in order to measure the amount of p24 production, HIV-1 p24 antigen capture ELISA was performed using the commercial kit (Perkin-Elmer Life Sciences, Boston, Mass.) according to the manufacturer's instruction.
The test system of series [9] is 8E5 and MOLT-4 cell lines. Put plainly: Syncytia formation in co-culture of 8E5 and MOLT-4 cell lines. Format: cell-based. Particulars: 0.5 mg/ml; for number of syncytia formed with time: FIG. 36; for syncytia formation inhibiting effect compared with control group: positive control AZT-Saq.
Protocol: The number of syncytia formed with time was determined. Mock was an experimental group without the sample and AZT-Saq treated with AZT and saquinavir at the same time was used as a positive control.
In series [10] the test system is H9 cells infected with HIV-1IIIB. Put plainly: RT-PCR analysis of HIV-1 gene (Vif, Env, Gag) expression. The class given is cell-based. Particulars: for Vif, Env, and Gag genes expressions: 0.05, 0.1, 0.5, and 1 mg/ml, 4 days, FIG. 35; for Env gene expression: as treatment concentrations were increased.
Protocol: RNA in the total cells cultured was isolated by using Trizol reagent (Invitrogen Co., CA, USA). 2 μg of isolated RNA was reverse-transcripted into cDNA using an oligo-(dT) primer (Promega, Madison, Wis., USA). […] A PCR product was isolated by subjecting an electrophoresis on 1.5% agarose gel at 100 V for 10 minutes. The gel was stained with 1 mg/ml of EtBr, and then photographed under UV illumination by using AlphaEas® gel image analysis software (Alpha Innotech., San Leandro, Calif., USA).
Series [11] deals with uninfected C8166 cell lines co-cultured with H9 cells infected with HIV-1IIIB. The series is described as follows: Syncytia formation in co-culture of uninfected C8166 with H9 infected with HIV-1IIIB. Particulars: for syncytia formation in co-culture over concentrations: 0.2, 0.4, 0.6, 0.8, and 1 mg/ml, 96 hours, FIGS. 32, 33; for syncytia formation inhibition in co-culture compared with positive control group: positive control Dextran sulfate. The class given is cell-based.
Protocol: After 96 hours, the formed syncytia was counted by using a microscope (100×). Dextran sulfate having the syncytia formation inhibiting effect was used as a positive control group.

Series [12] has as its system H9 cells infected with HIV-1IIIB. Put plainly: HIV-1 p24 antigen capture ELISA of culture supernatant. Format: cell-based. Particulars: various concentrations; FIG. 31. As for the experimental part: In order to measure p24 amount secreted from virus, H9 cells (3×10^6 cells/ml) was cultured at 37° C. for 1 hour in the presence of HIV-1IIIB. The unbound virus was removed from the cells by washing, and re-suspended in the culture medium to be 3×10^5 cells/ml. 1 mL of aliquot was injected to 24-well plate including the medium having the same volume containing COS-E sample. In order to measure the amount of virus secreted in the medium, HIV-1 p24 antigen capture ELISA was performed according to the manufacturer's instruction using a commercial kit (Perkin-Elmer Life Sciences, Boston, Mass.).
(In an ELISA, binding on a coated surface is turned into a signal by an enzyme label.)

The subject of series [13] is HIV-1 protease. To be noted: 0.5 mg/ml; HIV-1RF/HIV-1IIIB; FIG. 24.
Protocol: The amino acid sequence of FRET peptide is made by copying p17/p24 decomposition site by HIV-1 protease on a precursor Gag protein. FRET peptide is decomposed by HIV-1 protease and fluoresces.
Since then, 20 μl of substrate was added to HIV-1 protease that is pre-cultured at the same temperature for the same period and then slowly well-mixed for 30 to 60 second, completely. Since then, the fluorescence was measured at Ex/Em=340 nm/490 nm. The inhibiting rate was estimated as a relatively value to 100 of the fluorescence of the sample without an inhibitor.
Series [14] concerns the target T2, HIV-1 protease (Human immunodeficiency virus type 1 group M subtype B, UniProt P05959).
T2 construct: endogenous in cells; host or cells: C8166 and CEM-SS cells infected with HIV-1RF
Put plainly: Protease assay with protease diluents of C8166 and CEM-SS infected with HIV-1RF, various concentrations. The class given is biochemical. Particulars: 0.05, 0.1, 0.25, 0.5, and 1 mg/ml; FIG. 30. As for the experimental part:
First, the HIV-1 protease inhibiting activity was measured by using the same method as in Example <3-3> except that the protease diluents of two cell lines, C8166 and CEM-SS infected with HIV-1RF.

Series [15] relates to HIV-1 protease of HIV-1saq. Put plainly: SensoLyte 520 HIV-1 protease FRET assay in saquinavir resistant HIV-1saq. The class given is biochemical. Particulars: saquinavir resistant strain; FIG. 25.
Description: Meanwhile, the present inventors examined HIV-1 protease inhibiting effect using other cell lines of HIV-1. They use HIV-1saq that is a cell line having a resistance to saquinavir.
Saquinavir was used as a positive control group.
Setting [16] is: sample 0.5 mg/ml, mean of HIV-1RF and HIV-1IIIB.

Where two headings read alike, the source gives them in different places.

For the molecule Chitosan oligomer-Threonine [COS-T], the “cell viability of HIV-1-infected C8166 cells” value (from here on “cell viability”) in series [1] is listed as 72.3%. Also, the “syncytia formation inhibiting activity at 0.5 mg/ml or more” value in series [2] (0.5 mg/ml or more, as compared with COS-N) was “very sharply increased”. Besides, in series [2], the “syncytia formation inhibition over concentrations” value was “depending on the concentration”. In addition, the “HIV-1 replication (gene reporter)” value in [3] is reported as “inhibited the HIV-1 replication depending on the concentration”. For the same molecule, in [4], the “number of syncytia formation per well versus untreated control” value (“number … per well versus untreated control” below) was “significantly inhibited” and the “syncytia formation observed with a microscope” value (from here on “syncytia formation observed”) is on record as “inhibited”. For the same molecule, in series [5] (mean of HIV-1RF and HIV-1IIIB), the “IC50 (RT inhibition)” value was determined as 761 µg/mL. The “RT Inhibition (%)” value in series [5] (setting [16]) was found to be 55.3%.

Take Chitosan oligomer-Aspartic acid [COS-D]: the “cell viability” value in series [1] is 78.8%. The “HIV-1 replication (gene reporter)” value in series [3] is “inhibited the HIV-1 replication depending on the concentration”. In series [4], the “number … per well versus untreated control” value was “significantly inhibited” and the “syncytia formation observed” value was “inhibited”. The “reverse transcriptase inhibiting effect at 0.05 mg/ml” value in series [6] (0.05 mg/ml) is “no the reverse transcriptase inhibiting effect”. Also, in series [6] (0.05 mg/ml and 0.1 mg/ml), the “reverse transcriptase activity at low concentrations” value is listed as “not inhibited”. In addition, in [6], the “reverse transcriptase inhibiting activity over concentrations” value is reported as “depending on the concentration”. Moreover, the “reverse transcriptase (RT) activity inhibition” value in series [5] is listed as “effectively inhibited”. Further, in series [5] (setting [16]), the “RT Inhibition (%)” value is reported as 83.4%.

For the molecule “Chitosan oligomer-(Threonine-Tyrosine) [COS-TY]”, in series [7], the “p24 antigen production (western blot)” value is on record as “inhibited depending on the treatment concentrations”. The “cell protecting effect from HIV-1 lysis activity (cell deaths)” value in series [1] was “high cell protecting effect”. For the same molecule, in [3], the “HIV-1 replication (gene reporter)” value is “inhibited the HIV-1 replication depending on the concentration” and the “HIV-1 replication inhibition relative to the other samples” value is reported as “more effective”. For the same molecule, in series [8], the “p24 production inhibiting activity with later addition” value is “reduced as time passes”. Further, in series [4], the “number … per well versus untreated control” value is listed as “more significantly inhibited” and the “syncytia formation observed” value is “rarely formed”. Further, in series [9], the “number of syncytia formed with time” value is reported as “not increased” and the “syncytia formation inhibiting effect compared with control group” value is reported as “high syncytia formation inhibiting effect”. Further, in [10], the “Vif, Env, and Gag genes expressions” value is “reduced depending on the treatment concentrations”; the Env gene expression entry is given as “significantly inhibited”. In series [11], the “syncytia formation in co-culture over concentrations” value is on record as “inhibited depending on the treated concentration” and the “syncytia formation inhibition in co-culture compared with positive control group” value is “more effective”. The “reverse transcriptase (RT) activity inhibition” value in series [5] is recorded as “effectively inhibited”. Moreover, in series [5] (setting [16]), the “RT Inhibition (%)” value worked out at 85.8%.

For the molecule Chitosan oligomer-Glutamic acid [COS-E], the “p24 secretion amount (production amount) in culture supernatant” value in series [12] is “effectively inhibited”. In addition, the HIV-1 protease inhibition entry in the series on HIV-1 protease [13] was “effectively inhibited”. For the same molecule, in [4], the “number … per well versus untreated control” value is recorded as “significantly inhibited” and the “syncytia formation observed” value was “inhibited”. On HIV-1 protease [14], the “HIV-1 protease inhibition over concentrations” value is “depending on the concentration”. In addition, the “HIV-1 protease inhibition in HIV-1saq” value in series [15] is recorded as “effectively inhibited”. The “IC50 (RT inhibition)” value in [5] (mean of HIV-1RF and HIV-1IIIB) came out at 1036 µg/mL. Also, the “RT Inhibition (%)” value in series [5] (setting [16]) is given as 32.7%.

As to `Cc1cn([C@H]2C[C@H](N=[N+]=[N-])[C@@H](CO)O2)c(=O)[nH]c1=O` [AZT, zidovudine, reference compound], in series [5] (positive control 2 μM, mean of HIV-1RF and HIV-1IIIB), the “RT Inhibition (%)” value is on record as 82.6%. Besides, the concentration for half-maximal inhibition (IC50) in [5] (read-out: IC50 (RT inhibition), mean of HIV-1RF and HIV-1IIIB) is 303 µM.

With Chitosan oligomer-Tyrosine [COS-Y], the “HIV-1 replication (gene reporter)” value in [3] is “inhibited the HIV-1 replication depending on the concentration”. Moreover, in series [4], the “number … per well versus untreated control” value is reported as “significantly inhibited” and the “syncytia formation observed” value was “inhibited”. Besides, the “reverse transcriptase inhibiting activity over concentrations” value in [6] is on record as “depending on the concentration”. Besides, the “reverse transcriptase (RT) activity inhibition” value in series [5] is recorded as “effectively inhibited”. In addition, the “RT Inhibition (%)” value in [5] (setting [16]) turned out to be 83.5%.

Consider Chitosan oligomer-Asparagine [COS-N], for which the “cell viability” value in series [1] was determined as 71.2%. Moreover, the “syncytia formation inhibition over concentrations” value in series [2] is reported as “depending on the concentration”. For the same molecule, the “syncytia formation inhibition compared with positive control group” value in series [2] (positive control Dextran sulfate) is reported as “more effective”. Also, in [4], the “number … per well versus untreated control” value is listed as “significantly inhibited” and the “syncytia formation observed” value is reported as “inhibited”. The “IC50 (RT inhibition)” value in series [5] (mean of HIV-1RF and HIV-1IIIB) stood at 954 µg/mL. Moreover, in series [5] (setting [16]), the “RT Inhibition (%)” value amounted to 41.8%.

On to “Chitosan oligomer-(Threonine-Aspartic acid) [COS-TD]”, for which, in [7], the “p24 antigen production (western blot)” value was “inhibited depending on the treatment concentrations”. Also, in [1], the “cell viability” value is 94.6% and the “cell protecting effect from HIV-1 lysis activity (cell deaths)” value is reported as “high cell protecting effect”. Further, in [3], the “HIV-1 replication (gene reporter)” value is listed as “inhibited the HIV-1 replication depending on the concentration” and the “HIV-1 replication inhibition relative to the other samples” value is listed as “more effective”. Besides, the “p24 production inhibiting activity with later addition” value in [8] was “reduced as time passes”. Besides, in series [4], the “number … per well versus untreated control” value is “more significantly inhibited” and the “syncytia formation observed” value is “rarely formed”. Besides, in series [9], the “number of syncytia formed with time” value is reported as “not increased” and the “syncytia formation inhibiting effect compared with control group” value was “high syncytia formation inhibiting effect”. Also, in [10], the “Vif, Env, and Gag genes expressions” value was “reduced depending on the treatment concentrations”; the Env gene expression result is “significantly inhibited”. In addition, in series [11], the “syncytia formation in co-culture over concentrations” value was “inhibited depending on the treated concentration” and the “syncytia formation inhibition in co-culture compared with positive control group” value was “more effective”. In [5], the “reverse transcriptase (RT) activity inhibition” value is recorded as “effectively inhibited”. Moreover, the “IC50 (RT inhibition)” value in series [5] (mean of HIV-1RF and HIV-1IIIB) is 207 µg/mL. Further, the “RT Inhibition (%)” value in series [5] (setting [16]) amounted to 85.1%.

For orientation: IC50 means the point on the concentration scale where inhibition reaches its midpoint.
